pIC50: −log10 of the molar value.
Legend:
RIPK1 kinase [1] = target: T1, RIPK1 kinase (Homo sapiens, UniProt Q13546); assay: In vitro RIPK1 kinase activity assay (ADP-Glo), inhibition by compounds at 1 μM; assay type: biochemical; settings: compound 1 μM; ATP 10 μM; MBP substrate 100 μg/mL; read-out: RIPK1 kinase activity inhibition rate range
T1 construct: purchased Promega VA7593
T1 sequence (Q13546 1-671): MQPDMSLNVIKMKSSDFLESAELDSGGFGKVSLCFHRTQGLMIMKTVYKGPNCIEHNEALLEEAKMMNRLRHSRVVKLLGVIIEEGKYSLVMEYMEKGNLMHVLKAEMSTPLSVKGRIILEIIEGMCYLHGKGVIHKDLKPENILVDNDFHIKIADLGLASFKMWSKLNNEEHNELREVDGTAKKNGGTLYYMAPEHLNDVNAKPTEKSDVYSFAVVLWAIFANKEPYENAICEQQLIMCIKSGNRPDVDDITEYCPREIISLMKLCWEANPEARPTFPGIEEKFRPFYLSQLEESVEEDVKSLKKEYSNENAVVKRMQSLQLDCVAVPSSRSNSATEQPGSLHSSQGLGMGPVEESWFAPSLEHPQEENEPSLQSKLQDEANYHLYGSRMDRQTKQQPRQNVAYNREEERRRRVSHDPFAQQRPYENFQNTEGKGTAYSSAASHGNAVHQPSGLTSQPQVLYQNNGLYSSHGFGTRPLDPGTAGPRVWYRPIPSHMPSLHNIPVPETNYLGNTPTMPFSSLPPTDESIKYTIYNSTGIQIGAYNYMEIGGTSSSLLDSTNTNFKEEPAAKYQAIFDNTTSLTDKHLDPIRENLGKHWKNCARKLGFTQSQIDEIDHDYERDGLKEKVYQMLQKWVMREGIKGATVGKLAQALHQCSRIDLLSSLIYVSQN
Summary of the method: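 Compound and RIPK1 were preincubated 15 min at room temperature, then reacted 1 h with 10 μM ATP and 100 μg/mL MBP substrate in kinase buffer D. ADP formed was measured by ADP-Glo luminescence and converted to percent inhibition of kinase activity.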

RIPK1 kinase [2] = target: T1, RIPK1 kinase; assay: In vitro RIPK1 kinase activity IC50 assay (ADP-Glo); assay type: biochemical; settings: ATP 10 μM; MBP substrate 100 μg/mL; 8 concentration points; read-out: IC50 range of compounds for RIPK1 kinase activity
Experimental: RIPK1 kinase activity was assayed using the ADP-Glo assay and RIPK1 kinase reaction system (Promega, catalog number: VA7593). The RIPK1 kinase activity assay was performed according to the Promega kit manual.
The experimental method was briefly described as below. The concentration of RIPK1 kinase in the RIPK1 kinase reaction system was determined by kinase titration and S/B10. The compound was diluted with 1× kinase buffer D (1% DMSO), 1 μL of 1 mM compound DMSO stock solution was added to 19 μL 1× kinase buffer D, and the compound was serially diluted with 1× kinase buffer D at a ratio of 1:5, for a total of 8 concentration points, and a control with the same DMSO volume was set. RIPK1 kinase was diluted with 1× kinase buffer D. 2.5×ATP/substrate was diluted with 1× kinase buffer D. The final concentration of ATP in the kinase reaction system was 10 μM. The final concentration of MBP substrate was 100 μg/mL. 1 μL of diluted compound and 2 μL of diluted RIPK1 kinase were mixed, incubated at room temperature for 15 minutes, 2 μL of 2.5×ATP/substrate was added, mixed, and incubated at room temperature for 1 hour. 5 μL ADP-Glo reagent was added to each well and incubated at room temperature for 1 hour. 10 μL ADP detection reagent was added to each well and incubated at room temperature for another 0.5-1 hour. The chemiluminescent signal was read with a microplate reader and the kinase activity inhibition rate was calculated. IC50 was obtained by fitting the nonlinear regression curve log [inhibitor] vs. response-variable slope (four parameters) in GraphPad Prism.

U937 cells = assay: Inhibition rate of compound (1 μM) on necroptosis of U937 cells (TSZ-induced, CellTiter-Glo); assay type: cell-based; settings: TSZ (hTNF-α, SM-164, Z-VAD-FMK) 20 hours
Summary of the method: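 U937 cells were pretreated 15 min with compound, then necroptosis was triggered with TSZ (Z-VAD-FMK, hTNF-α, SM-164) for 20 h at 37° C. Viability was read as ATP by CellTiter-Glo luminescence, and inhibition (%) was taken relative to no-TSZ and TSZ-only wells.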

Row | SMILES | inhibition at 1 µM (RIPK1 kinase [1]) [%] | pIC50 (RIPK1 kinase [2]) | Inhibition rate range of compounds (1 μM) on U937 cell necroptosis (U937 cells)
1 | CN1C(=O)[C@@H](NC(=O)C(=O)NCCc2ccccc2F)COc2ccc(C#CCCO)cc21 [Example 33, (S)—N^1-(2-fluorophenethyl)-N^2-(7-(4-hydroxybut-1-yn-1-yl)-5-methyl-4-oxo-2,3,4,5-tetrahydrobenzo[b][1,4]oxazepin-3-yl)oxalamide] | ≥ 75 | > 7.00 | A (A: ≥90%)
2 | CN1C(=O)[C@@H](NC(=O)C(=O)NCCc2cccc(F)c2)COc2ccc(C#CCCO)cc21 [Example 34, (S)—N^1-(3-fluorophenethyl)-N^2-(7-(4-hydroxybut-1-yn-1-yl)-5-methyl-4-oxo-2,3,4,5-tetrahydrobenzo[b][1,4]oxazepin-3-yl)oxalamide] | 50 to 74 | > 7.00 | A (A: ≥90%)
3 | CN1C(=O)[C@@H](NC(=O)C(=O)NCCc2ccc(F)cc2)COc2ccc(C#CCCO)cc21 [Example 35, (S)—N^1-(4-fluorophenethyl)-N^2-(7-(4-hydroxybut-1-yn-1-yl)-5-methyl-4-oxo-2,3,4,5-tetrahydrobenzo[b][1,4]oxazepin-3-yl)oxalamide] | 50 to 74 | > 7.00 | A (A: ≥90%)
4 | CN1C(=O)[C@@H](NC(=O)C(=O)NCCc2cc(F)cc(F)c2)COc2ccc(C#CCCO)cc21 [Example 36, (S)—N^1-(3,5-difluorophenethyl)-N^2-(7-(4-hydroxybut-1-yn-1-yl)-5-methyl-4-oxo-2,3,4,5-tetrahydrobenzo[b][1,4]oxazepin-3-yl)oxalamide] | ≥ 75 | > 7.00 | A (A: ≥90%)
5 | CN1C(=O)[C@@H](NC(=O)C(=O)NCc2cccc(F)c2)COc2ccc(C#CCCO)cc21 [Example 39, (S)—N^1-(3-fluorobenzyl)-N^2-(7-(4-hydroxybut-1-yn-1-yl)-5-methyl-4-oxo-2,3,4,5-tetrahydrobenzo[b][1,4]oxazepin-3-yl)oxalamide] | ≥ 75 | > 7.00 | A (A: ≥90%)
6 | CN1C(=O)[C@@H](NC(=O)C(=O)NCc2ccc(F)cc2)COc2ccc(C#CCCO)cc21 [Example 40, (S)—N^1-(4-fluorobenzyl)-N^2-(7-(4-hydroxybut-1-yn-1-yl)-5-methyl-4-oxo-2,3,4,5-tetrahydrobenzo[b][1,4]oxazepin-3-yl)oxalamide] | ≥ 75 | > 7.00 | A (A: ≥90%)
7 | CN1C(=O)[C@@H](NC(=O)C(=O)NCCc2cccc(F)c2)COc2ccc(C#CC(C)(C)O)cc21 [Example 42, (S)—N^1-(3-fluorophenethyl)-N^2-(7-(3-hydroxy-3-methylbut-1-yn-1-yl)-5-methyl-4-oxo-2,3,4,5-tetrahydrobenzo[b][1,4]oxazepin-3-yl)oxalamide] | ≥ 75 | > 7.00 | A (A: ≥90%)
8 | CN1C(=O)[C@@H](NC(=O)C(=O)NCCc2ccccc2)COc2ccc(C#CC3(O)COC3)cc21 [Example 43, (S)—N^1-(7-((3-hydroxyoxetan-3-yl)ethynyl)-5-methyl-4-oxo-2,3,4,5-tetrahydrobenzo[b][1,4]oxazepin-3-yl)-N^2-phenethyloxalamide] | ≥ 75 | > 7.00 | A (A: ≥90%)
9 | CN1C(=O)[C@@H](NC(=O)C(=O)NCCc2ccccc2)COc2ccc(C#CC3(O)CCCCC3)cc21 [Example 44, (S)—N^1-(7-((1-hydroxycyclohexyl)ethynyl)-5-methyl-4-oxo-2,3,4,5-tetrahydrobenzo[b][1,4]oxazepin-3-yl)-N^2-phenethyloxalamide] | 50 to 74 | > 7.00 | A (A: ≥90%)
10 | C/C(C#Cc1ccc2c(c1)N(C)C(=O)[C@@H](NC(=O)C(=O)NCCc1ccccc1)CO2)=C/CO [Example 45, (S,Z)-N^1-(7-(5-hydroxy-3-methylpent-3-en-1-yn-1-yl)-5-methyl-4-oxo-2,3,4,5-tetrahydrobenzo[b][1,4]oxazepin-3-yl)-N^2-phenethyloxalamide] | ≥ 75 | > 7.00 | A (A: ≥90%)
11 | CN1C(=O)[C@@H](NC(=O)C(=O)NCCc2ccccc2)COc2ccc(C#CCN3CCC(O)C3)cc21 (stereo partly drawn) [Example 46, N^1-((3S)-7-(3-(3-hydroxypyrrolidin-1-yl)prop-1-yn-1-yl)-5-methyl-4-oxo-2,3,4,5-tetrahydrobenzo[b][1,4]oxazepin-3-yl)-N^2-phenethyloxalamide] | ≥ 75 | > 7.00 | A (A: ≥90%)
12 | CN1C(=O)[C@@H](NC(=O)C(=O)NCCc2ccccc2)COc2ccc(C#CCN3CCC(=O)CC3)cc21 [Example 47, (S)—N^1-(5-methyl-4-oxo-7-(3-(4-oxopiperidin-1-yl)prop-1-yn-1-yl)-2,3,4,5-tetrahydrobenzo[b][1,4]oxazepin-3-yl)-N^2-phenethyloxalamide] | ≥ 75 | > 7.00 | A (A: ≥90%)
13 | CN1C(=O)[C@@H](NC(=O)C(=O)NCCc2ccccc2)COc2ccc(C#CCN3CCOCC3)cc21 [Example 48, (S)—N^1-(5-methyl-7-(3-morpholinoprop-1-yn-1-yl)-4-oxo-2,3,4,5-tetrahydrobenzo[b][1,4]oxazepin-3-yl)-N^2-phenethyloxalamide] | 50 to 74 | > 7.00 | A (A: ≥90%)
14 | CN1C(=O)[C@@H](NC(=O)C(=O)NCCc2ccccc2)COc2ccc(C#CCCN)cc21 [Example 50, (S)—N^1-(7-(4-aminobut-1-yn-1-yl)-5-methyl-4-oxo-2,3,4,5-tetrahydrobenzo[b][1,4]oxazepin-3-yl)-N^2-phenethyloxalamide] | ≥ 75 | > 7.00 | A (A: ≥90%)
15 | CN1C(=O)[C@@H](NC(=O)C(=O)NCCc2ccccc2)COc2ccc(C#CCCNS(C)(=O)=O)cc21 [Example 51, (S)—N^1-(5-methyl-7-(4-(methylsulfonamido)but-1-yn-1-yl)-4-oxo-2,3,4,5-tetrahydrobenzo[b][1,4]oxazepin-3-yl)-N^2-phenethyloxalamide] | 25 to 49 | > 7.00 | A (A: ≥90%)
16 | COCC#Cc1ccc2c(c1)N(C)C(=O)[C@@H](NC(=O)C(=O)NCCc1ccccc1)CO2 [Example 52, (S)—N^1-(7-(3-methoxyprop-1-yn-1-yl)-5-methyl-4-oxo-2,3,4,5-tetrahydrobenzo[b][1,4]oxazepin-3-yl)-N^2-phenethyloxalamide] | ≥ 75 | > 7.00 | A (A: ≥90%)
17 | CN1C(=O)C(NC(=O)C(=O)NCCc2ccccc2)CCc2ccc(Br)cc21 (stereo not drawn) [Example 61, N^1-(8-bromo-1-methyl-2-oxo-2,3,4,5-tetrahydro-1H-benzo[b]azepin-3-yl)-N^2-phenethyloxalamide] | ≥ 75 | > 7.00 | A (A: ≥90%)

— patent publication US20250368633A1, “AZEPINE FUSED RING COMPOUND AS RIPK1 INHIBITOR AND USE THEREOF” (ARTIVILA BIOPHARMA, priority 2022, published 2025)
